Data as given in patent publication US8247400B2, “Cephem compounds useful for the treatment of bacterial infections” (priority 2009, dated 2012).
“And” between values parts separate entries of the source, which are not always exact repeats. Identical values can stand only once.

Legend:
[1] = Agar diffusion antibacterial activity; format: cell-based; settings: Pseudomonas aureus; for Zone of Inhibition (mm) (average of 3 plates): Compound A approx. 22 μg/disk, Gentamicin 10 mcg per disk, 30-35° C., 2 days
Procedure: (§1) The antibiotic activity of Compound A (as the hydrochloride salt) was tested by Agar Diffusion against the following bacterial strains: Staphylococcus aureus, Salmonella typhimurium, Escherichia coli and Pseudomonas aureus. The antibiotic activity of Compound A was compared to that observed for the antibiotic gentamicin (positive control antibiotic). 0.85% saline solution was used as a negative control. The protocol is provided below. A solution containing Compound A hydrochloride, 20 ug per disk, was added to BBL™ Sensi-Disc™. Fifteen Petri dish filled with an agar medium were prepared a day before their use. These were utilized for testing of 5 microorganisms (4 bacterial species including Staphylococcus aureus, Salmonella typhimurium, Pseudomonas aeruginosa, and Escherichia coli, and one fungus (Candida albicans). Triplicate plates were then streaked with each specific microorganism. Twelve plates to be utilized for antibacterial testing were applied with positive control and negative control discs. Positive control discs are impregnated with gentamycin and are available from Becton, Dickinson and Co (ready to be used cartridges, “BBL™ Sensi-Disc™ Antimicrobial Susceptibility Test Discs”). Negative control discs were prepared by soaking dry disks with normal saline solution. These discs were applied by means of a BBL™ dispenser, using aseptic precautions. The remaining (three) plates to be utilized for antifungal properties were also applied with positive and negative controls; however, in this case positive control discs were impregnated with nystatin (available as BBL™ Taxo™ Nystatin Discs Cartridge from BD & Co). Fifteen dry discs (identical to those of positive and negative control discs but with unique identification print on one side, “NY”) were soaked with a solution of Compound A hydrochloride for about 5 minutes. The discs were then carefully transferred (using a sterile forceps) to a sterile empty Petri dish to decant off any excess test solution. Then one disc was applied to each of fifteen plates that were previously applied with positive and negative controls. The approximate loading of compound A was 22 μg/disk. Triplicate plates for each microorganism were assembled together and properly labeled prior to incubation. Plates for antibacterial testing were incubated at 30-35° C. (for 2 days) while for antifungal testing plates were incubated at 24° C. Plates were read for zones of inhibition using Vernier calipers.

Escherichia coli = assay: Agar diffusion antibacterial activity; format: cell-based; settings: for Zone of Inhibition (mm) (average of 3 plates): Compound A approx. 22 μg/disk, Gentamicin 10 mcg per disk, 30-35° C., 2 days
Procedure: as §1

Salmonella typhimurium = assay: Agar diffusion antibacterial activity; format: cell-based; settings: for Zone of Inhibition (mm) (average of 3 plates): Compound A approx. 22 μg/disk, Gentamicin 10 mcg per disk, 30-35° C., 2 days
Procedure: as §1

Staphylococcus aureus = assay: Agar diffusion antibacterial activity; format: cell-based; settings: for Zone of Inhibition (mm) (average of 3 plates): Compound A approx. 22 μg/disk, Gentamicin 10 mcg per disk, 30-35° C., 2 days
Procedure: as §1

[2] = test system: human peripheral blood lymphocytes (HPBL); assay: In vitro mammalian chromosome aberration test; format: cell-based; settings: vehicle DMSO, maximum concentration 5000 μg/ml
Source text: [B] In Vitro Mammalian Chromosome Aberration Test
The purpose of this study was to evaluate the clastogenic potential of a test article based upon its ability to induce chromosome aberrations in human peripheral blood lymphocytes (HPBL).
Negative: Test Article Solvent (or Vehicle)
Positive: Mitomycin C (MMC, CAS number 50-07-7)
Cyclophosphamide (CP, CAS number 6055-19-2)

rats (CD® strain) = assay: Four-week intravenous toxicity study in rats; format: in vivo; settings: 9 mg/kg/day, over a period of 28 days
Procedure: The potential toxicity of an intravenously administered formulation of Compound A (average concentration analysis=95.6%) was studied for four weeks in rats (CD® strain). The vehicle (L-arginine dissolved in saline, 21.7 mg/ml), control (saline solution) and test solutions were administered by an intravenous infusion in the cannulated femoral vein through a dosing port. The dose was administered once per day at approximately the same time (±2 hours) each day throughout the duration of the study. The dose volume was 10 ml/kg per day. All doses were administered using a syringe infusion pump set for the appropriate infusion rate to deliver the proper dose volume over the required infusion duration of 15 minutes. All animals across all groups were examined prior to exposure and all the main study survivors were examined again at the end of study. […] Detailed clinical examinations were made for each animal daily during treatment (approx 30 to 60 minutes post-dosing).

[3] = Room temperature stability of the 1.0 mg/ml parenteral dosage form with L-arginine (Table 10); format: physicochemical; settings: for % Assay / pH: 1 mg/ml solution with L-arginine in normal saline (Table 10)
Procedure: An example of a dosage form containing 1.0 mg/ml of Compound A hydrochloride that is suitable for parenteral (e.g., IM or IV) administration is provided in Table 10. The L-arginine was dissolved in saline and the pH of the solution was adjusted to ˜8.0 using 0.05N HCl. Compound A was then added and the pH of the solution was adjusted to ˜7.40. The solution was then filtered through a 0.22 μm filter.

[4] = test system: thymidine kinase locus of L5178Y mouse lymphoma cells; settings: vehicle DMSO, maximum concentration 5000 μg/ml
Procedure: In vitro genotoxicity studies were conducted as a mouse lymphoma study and a chromosomal aberration test. The vehicle was DMSO and the maximum concentration to be tested was 5000 μg/ml for both studies.
In Vitro Mammalian Cell Gene Mutation Test
(L5178Y/TK^+/− Mouse Lymphoma Assay)
The purpose of this study was to evaluate the genotoxic potential of the test article based on quantitation of forward mutations at the thymidine kinase locus of L5178Y mouse lymphoma cells and the sizing of the resulting colonies.
Negative: Test article solvent (or vehicle)
Positive: Methyl methanesulfonate (MMS)
7,12-dimethylbenz(a)anthracene (DMBA)

[5] = Solubility of Compound A in solvent mixtures; format: physicochemical
[6] = Room temperature stability of the 4.20 mg/ml Compound A dosage form (Table 8); format: physicochemical
Procedure: An example of a dosage form containing 4.20 mg/ml of Compound A that is suitable for parenteral (e.g., IM or IV) administration is provided in Table 8. The propylene glycol, PEG-300 and ethanol were added to a volumetric flask and mixed. The acetate buffer pH 5.0 (1M) was then added q.s to volume and the contents of the flask were mixed. Compound A was added to a separate clear dry volumetric flask. Approximately ⅓ of the total propylene glycol, PEG-300 and ethanol mixture was added and the resulting mixture was shaken vigorously for 2 minutes. The remainder of the mixture was then added to the flask to make up the volume. The contents were mixed by gentle shaking or by sonication until a clear solution was obtained. The solution was then filtered through a 0.22μ filter (Millex® GV) using a sterile disposable syringe or vial.

[7] = pH solubility profile of Compound A in USP buffers at room temperature; format: physicochemical; settings: for Approximate Solubility: room temperature
Procedure: Testing was conducted using a reciprocating platform shaker (Heidolph® Promax 1020).

[8] = versus Gentamicin (10 mcg per disk)
[9] = 4.20 mg/ml Compound A in propylene glycol/ethanol/PEG-300/acetate buffer pH 5.0 (Table 8), batches 1-4
[10] = pH 7.0 (0.1 M Potassium Phosphate)
[11] = pH 9.0 (0.1 M Potassium phosphate)

## CCO/N=C(\C(=O)N[C@@H]1C(=O)N2C(C(=O)[O-])=C(Sc3nc(-c4cc[n+](C)cc4)cs3)CS[C@H]12)c1nsc(NC(C)=O)n1.Cl [Compound A hydrochloride, (6R,7R)-7-[[(2Z)-2-(ethoxyimino)-2-[5-(acetamido)-1,2,4-thiadiazol-3-yl]acetyl]amino]-3-[[4-(1-methylpyridini-1-ium-4-yl)-1,3-thiazol-2-yl]sulfanyl]-8-oxo-5-thia-1-azabicylo[4.2.0]oct-2-ene-2-carboxylate hydrochloride]
[1]
  antibacterial activity (in words): moderate activity
  Zone of Inhibition (mm) (average of 3 plates): 9.68 mm
Escherichia coli
  Zone of Inhibition (mm) (average of 3 plates): 23.82 mm
Escherichia coli; [8]
  antibacterial activity relative to Gentamicin: 118%
Salmonella typhimurium
  Zone of Inhibition (mm) (average of 3 plates): 21.12 mm
Salmonella typhimurium; [8]
  antibacterial activity relative to Gentamicin: 117%
Staphylococcus aureus
  Zone of Inhibition (mm) (average of 3 plates): 36.71 mm
Staphylococcus aureus; [8]
  antibacterial activity relative to Gentamicin: 173%

## CCO/N=C(\C(=O)N[C@@H]1C(=O)N2C(C(=O)[O-])=C(Sc3nc(-c4cc[n+](C)cc4)cs3)CS[C@H]12)c1nsc(NC(C)=O)n1 [Compound A, (6R,7R)-7-[[(2Z)-2-(ethoxyimino)-2-[5-(acetamido)-1,2,4-thiadiazol-3-yl]acetyl]amino]-3-[[4-(1-methylpyridinium-4-yl)-1,3-thiazol-2-yl]sulfanyl]-8-oxo-5-thia-1-azabicylo[4.2.0]oct-2ene-2-carboxylate]
[2]
  genotoxicity result, chromosomal aberration study using human lymphocytes: negative
Rats (CD® strain)
  adverse clinical events: did not show any adverse clinical events
[3]; 2 hours
  % Assay: 95.3%
  pH: 7.34
[3]; 4 hours
  % Assay: 95.1%
  pH: 7.41
[3]; Initial
  % Assay: 95.7%
  pH: 7.35
[3]; solution containing 1 mg/ml of Compound A
  stability of the solution (in words): stable
[4]
  genotoxicity result, mouse lymphoma study: negative
[5]; 8% Propylene Glycol, 2% Ethanol, 2% PEG-300, 5% 1-Methyl-2-pyrrolidinone, 83% Acetate buffer pH 5 (1M)
  Approximate Solubility: 2000 µg/mL
[5]; 8% Propylene Glycol, 2% Ethanol, 2% PEG-300, 88% Acetate buffer pH 5 (1M)
  Approximate Solubility: 1800 µg/mL
[5]; 8% Propylene Glycol, 2% Ethanol, 5% Benzyl alcohol, 85% Acetate buffer pH 5 (1M) (first entry, r11)
  Approximate Solubility: 1500 µg/mL
[5]; 8% Propylene Glycol, 2% Ethanol, 5% Benzyl alcohol, 85% Acetate buffer pH 5 (1M) (second entry, r17)
  Approximate Solubility: 3500 µg/mL
[5]; 8% Propylene Glycol, 2% Ethanol, 90% Acetate buffer pH 5 (1M)
  Approximate Solubility: 1500 µg/mL
[5]; 8% Propylene Glycol, 2% PEG-300, 5% Benzyl alcohol, 85% Acetate buffer pH 5 (1M)
  Approximate Solubility: 4000 µg/mL
[5]; 8% Propylene Glycol, 9% PEG-300, 83% Acetate buffer pH 5 (1M)
  Approximate Solubility: 1100 µg/mL
[5]; 10% Sodium benzoate in Normal Saline, pH 6.5
  Approximate Solubility: 4200 µg/mL
[5]; 10% Sodium benzoate in water, pH 6.3
  Approximate Solubility: 4200 µg/mL
[5]; 40% Propylene Glycol, 2.5% Ethanol, 57.5% Acetate buffer pH 5
  Approximate Solubility: 4200 µg/mL
[5]; 60% Propylene Glycol, 2.5% Ethanol, 37.5% Acetate buffer pH 5
  Approximate Solubility: >25000 µg/mL
[5]; Dimethyl sulfoxide (DMSO)
  Approximate Solubility: 212000 µg/mL
[5]; Ethanol
  Approximate Solubility: 1500 µg/mL
[5]; Methanol
  Approximate Solubility: 400000 µg/mL
[5]; Sterile water for injection USP
  Approximate Solubility: 800 µg/mL
[6]; [9]
  Initial Assay (%): 99.2% and 101.3% and 100.5% and 98.5%
  Initial pH: 6.06 and 6.08 and 6.13
[6]; 4.20 mg/ml Compound A solution (Table 8), 3 hrs at RT, batch 4
  Final Assay (%): 96.9 (3 hrs at RT) %
[6]; 4.20 mg/ml Compound A solution (Table 8), 5 hrs at RT, batches 2 and 3
  Final Assay (%): 97.9 (5 hrs at RT) % and 95.6 (5 hrs at RT) %
[6]; 4.20 mg/ml Compound A solution (Table 8), batch 4, 3 hrs at RT
  Final pH: 5.99
[7]; pH 1.0 (0.2 M KCl—HCl)
  Description: Solution
  Approximate Solubility: 500 µg/mL
[7]; pH 3.0 (0.1 M Sodium acetate)
  Description: Solution
  Approximate Solubility: 4700 µg/mL
[7]; pH 5.0 (0.05 M Sodium acetate)
  Description: Gel
  Approximate Solubility: 800 µg/mL
[7]; pH 5.0 (0.1 M Sodium acetate)
  Description: Gel
  Approximate Solubility: 400 µg/mL
[7]; pH 5.0 (0.5 M Sodium acetate)
  Description: Gel
  Approximate Solubility: 500 µg/mL
[7]; [10]
  Description: Gel
  Approximate Solubility: 400 µg/mL
[7]; [11]
  Description: Solution
  Approximate Solubility: 13300 µg/mL

## Gentamicin [reference compound]
[1]
  Zone of Inhibition (mm) (average of 3 plates): 20.17 mm
Escherichia coli
  Zone of Inhibition (mm) (average of 3 plates): 20.27 mm
Salmonella typhimurium
  Zone of Inhibition (mm) (average of 3 plates): 18.03 mm
Staphylococcus aureus
  Zone of Inhibition (mm) (average of 3 plates): 21.27 mm
